Among the data in PubChem BioAssay AID248 (DTP/NCI, 2004) are T/C values, retold here.

Each structure is given as a SMILES string. Inconclusive results and toxic doses are left out.

The subject of this experiment is L1210 leukemia ip in BDF1 mice, survival T/C. Briefly: NCI In Vivo Anticancer Drug Screen. Data for tumor model L1210 Leukemia (intraperitoneal) in B6D2F1 (BDF1) mice. The following applies: endpoint: mean survival time, higher = longer survival. Summed up:
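Each compound was tested against a transplantable tumor grown in mice. The endpoint was survival, with treated animals benchmarked against vehicle controls as a simple ratio.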

The mark [1] stands for this setting: dose: 100.0 mg/kg/injection, schedule: Q01DX009 (ip), vehicle: saline with Tween-80.
Setting [2] is: dose: 200.0 mg/kg/injection, schedule: Q01DX009 (ip), vehicle: saline with Tween-80.
The mark [3] stands for this setting: dose: 100.0 mg/kg/injection, schedule: Q04DX003 (ip), vehicle: saline with Tween-80.
Where [4] appears, read: dose: 200.0 mg/kg/injection, schedule: Q04DX003 (ip), vehicle: saline with Tween-80.
Setting [5] is: dose: 400.0 mg/kg/injection, schedule: Q04DX003 (ip), vehicle: saline with Tween-80.
[6] abbreviates: dose: 100.0 mg/kg/injection, schedule: Q01DX001 (ip), vehicle: saline.
The mark [7] stands for this setting: dose: 200.0 mg/kg/injection, schedule: Q01DX001 (ip), vehicle: saline.
The mark [8] stands for this setting: dose: 400.0 mg/kg/injection, schedule: Q01DX001 (ip), vehicle: saline.

For the compound `NC(=S)N/N=C/c1ncccc1O`, the T/C by setting is: (dose: 1.8 mg/kg/injection, schedule: Q01DX Z (ip), vehicle: saline) 111 % of control; (dose: 2.7 mg/kg/injection, schedule: Q01DX Z (ip), vehicle: saline) 113 % of control; (dose: 4.1 mg/kg/injection, schedule: Q01DX Z (ip), vehicle: saline) 118 % of control; (dose: 6.25 mg/kg/injection, schedule: Q01DX015 (ip), vehicle: saline) 122 % of control; (dose: 6.25 mg/kg/injection, schedule: Q01DX Z (ip), vehicle: saline) 120 % of control; (dose: 12.5 mg/kg/injection, schedule: Q01DX Z (ip), vehicle: saline) 153 % of control. The T/C is 119 % of control (dose: 21.0 mg/kg/injection, schedule: Q03HX032 (ip), vehicle: saline with Tween-80); 150 % of control (dose: 25.0 mg/kg/injection, schedule: Q01DX015 (ip), vehicle: saline); 159 % of control (dose: 25.0 mg/kg/injection, schedule: Q01DX Z (ip), vehicle: saline); 120 % of control (dose: 47.0 mg/kg/injection, schedule: Q03HX032 (ip), vehicle: saline with Tween-80); 170 % of control (dose: 50.0 mg/kg/injection, schedule: Q01DX Z (ip), vehicle: saline); 111 % of control (dose: 100.0 mg/kg/injection, schedule: Q01DX015 (ip), vehicle: saline). Moreover, the T/C reads like this: (dose: 100.0 mg/kg/injection, schedule: Q01DX Z (ip), vehicle: saline) 165 % of control; (dose: 100.0 mg/kg/injection, schedule: Q01DX Z (oral), vehicle: saline) 112 % of control; (dose: 150.0 mg/kg/injection, schedule: Q01DX Z (ip), vehicle: saline) 153 % of control; (dose: 200.0 mg/kg/injection, schedule: Q01DX015 (ip), vehicle: saline) 94 % of control; (dose: 335.0 mg/kg/injection, schedule: Q01DX Z (ip), vehicle: saline) 118 % of control; (dose: 335.0 mg/kg/injection, schedule: Q01DX Z (oral), vehicle: saline) 115 % of control. Moreover, the T/C (dose: 400.0 mg/kg/injection, schedule: Q01DX015 (ip), vehicle: saline) was 90 % of control.

For `CC(C)c1ccccc1OS(=O)(=O)c1ccc([N+](=O)[O-])cc1`, the T/C under setting [1] is 103 % of control; the T/C (dose: 100.0 mg/kg/injection, schedule: Q04DX003 (ip), vehicle: Klucel (hydroxypropylcellulose) (HPC)) was 103 % of control; the T/C under setting [2] is 92 % of control; the T/C (dose: 200.0 mg/kg/injection, schedule: Q04DX003 (ip), vehicle: Klucel (hydroxypropylcellulose) (HPC)) is 105 % of control; the T/C (dose: 400.0 mg/kg/injection, schedule: Q01DX009 (ip), vehicle: saline with Tween-80) is 90 % of control; the T/C (dose: 400.0 mg/kg/injection, schedule: Q04DX003 (ip), vehicle: Klucel (hydroxypropylcellulose) (HPC)) is 92 % of control.

Turning to `N[C@H](Cc1c[nH]c2ccccc12)C(=O)O`, the T/C (dose: 100.0 mg/kg/injection, schedule: Q01DX009 (ip), vehicle: acetone) is 95 % of control; the T/C (dose: 200.0 mg/kg/injection, schedule: Q01DX009 (ip), vehicle: acetone) is 104 % of control; the T/C (dose: 400.0 mg/kg/injection, schedule: Q01DX009 (ip), vehicle: acetone) was 102 % of control; the T/C (dose: 800.0 mg/kg/injection, schedule: Q01DX009 (ip), vehicle: acetone) was 95 % of control.

In the case of `O=C1CC2(CCCCC2)C(=O)N1N1CCCCCC1`, the T/C is 102 % of control (dose: 100.0 mg/kg/injection, schedule: Q01DX001 (ip), vehicle: Klucel (hydroxypropylcellulose) (HPC)); 100 % of control (dose: 200.0 mg/kg/injection, schedule: Q01DX001 (ip), vehicle: Klucel (hydroxypropylcellulose) (HPC)); 97 % of control (dose: 400.0 mg/kg/injection, schedule: Q01DX001 (ip), vehicle: Klucel (hydroxypropylcellulose) (HPC)).

On to `NC(=S)N=Nc1c(O)n2c3c(cccc13)CCc1ccccc1-2`, for which the T/C under setting [3] is 92 % of control, the T/C under setting [4] is 96 % of control and the T/C under setting [5] was 94 % of control.

Take `c1ccc(CNc2ncn[nH]2)cc1`: the T/C is, setting by setting: (dose: 50.0 mg/kg/injection, schedule: Q01DX009 (ip), vehicle: saline with Tween-80) 95 % of control; under setting [1], 103 % of control; under setting [2], 95 % of control.

Regarding `[C-]#[N+]CCCCCC`, the T/C is 101 % of control (dose: 3.12 mg/kg/injection, schedule: Q04DX003 (sc), vehicle: olive oil, sesame oil, peanut oil); 92 % of control (dose: 4.21 mg/kg/injection, schedule: Q01DX009 (ip), vehicle: olive oil, sesame oil, peanut oil); 93 % of control (dose: 6.25 mg/kg/injection, schedule: Q04DX003 (sc), vehicle: olive oil, sesame oil, peanut oil); 112 % of control (dose: 8.43 mg/kg/injection, schedule: Q01DX009 (sc), vehicle: olive oil, sesame oil, peanut oil); 88 % of control (dose: 12.5 mg/kg/injection, schedule: Q04DX003 (sc), vehicle: olive oil, sesame oil, peanut oil); 112 % of control (dose: 16.87 mg/kg/injection, schedule: Q01DX009 (sc), vehicle: olive oil, sesame oil, peanut oil). Further, the T/C is 104 % of control (dose: 18.0 mg/kg/injection, schedule: Q04DX003 (sc), vehicle: other); 101 % of control (dose: 28.0 mg/kg/injection, schedule: Q04DX003 (sc), vehicle: other); 108 % of control (dose: 40.0 mg/kg/injection, schedule: Q04DX003 (sc), vehicle: other); 111 % of control (dose: 60.0 mg/kg/injection, schedule: Q04DX003 (sc), vehicle: olive oil, sesame oil, peanut oil); 100 % of control (dose: 90.0 mg/kg/injection, schedule: Q04DX003 (sc), vehicle: olive oil, sesame oil, peanut oil); 109 % of control (dose: 135.0 mg/kg/injection, schedule: Q04DX003 (sc), vehicle: olive oil, sesame oil, peanut oil).

Consider `O=C1c2cc(Br)ccc2NC1(c1c[nH]c2ccc(Br)cc12)c1c[nH]c2ccc(Br)cc12`, for which the T/C reads like this: (dose: 50.0 mg/kg/injection, schedule: Q01DX001 (ip), vehicle: saline) 100 % of control; under setting [6], 96 % of control; under setting [7], 93 % of control; under setting [8], 93 % of control.

For the compound `CC1=CC(=O)C(C(O)(C(F)(F)Cl)C(F)(F)Cl)C(C)(C)C1` (stereo not given), the T/C is, setting by setting: (dose: 100.0 mg/kg/injection, schedule: Q01DX009 (ip), vehicle: Klucel (hydroxypropylcellulose) (HPC)) 98 % of control; under setting [3], 102 % of control; (dose: 200.0 mg/kg/injection, schedule: Q01DX009 (ip), vehicle: Klucel (hydroxypropylcellulose) (HPC)) 103 % of control; under setting [4], 96 % of control; (dose: 400.0 mg/kg/injection, schedule: Q01DX009 (ip), vehicle: Klucel (hydroxypropylcellulose) (HPC)) 97 % of control; under setting [5], 109 % of control.

Turning to `O=C(O)c1ccc(OCCc2ccccc2)cc1`, the T/C by setting is: (dose: 75.0 mg/kg/injection, schedule: Q01DX001 (ip), vehicle: saline) 98 % of control; (dose: 75.0 mg/kg/injection, schedule: Q04DX003 (ip), vehicle: saline) 103 % of control; (dose: 150.0 mg/kg/injection, schedule: Q01DX001 (ip), vehicle: saline) 98 % of control; (dose: 150.0 mg/kg/injection, schedule: Q04DX003 (ip), vehicle: saline) 98 % of control; (dose: 300.0 mg/kg/injection, schedule: Q01DX001 (ip), vehicle: saline) 95 % of control; (dose: 300.0 mg/kg/injection, schedule: Q04DX003 (ip), vehicle: saline) 93 % of control.

Turning to `O=C(Nc1ccccc1)NS(=O)(=O)CS(=O)(=O)NC(=O)Nc1ccccc1`, the T/C by setting is: under setting [6], 104 % of control; under setting [7], 102 % of control; under setting [8], 109 % of control.

On to `CC(C)(C)OC(=O)N1CC=CCN1C(=O)OC(C)(C)C`, for which the T/C is, setting by setting: (dose: 100.0 mg/kg/injection, schedule: Q01DX001 (ip), vehicle: other) 98 % of control; (dose: 200.0 mg/kg/injection, schedule: Q01DX001 (ip), vehicle: other) 93 % of control; (dose: 400.0 mg/kg/injection, schedule: Q01DX001 (ip), vehicle: other) 102 % of control.

For the compound `O=CN1CCCc2cc(C(=O)O)ccc21`, the T/C was 90 % of control (dose: 100.0 mg/kg/injection, schedule: Q01DX009 (ip), vehicle: saline); 93 % of control (dose: 200.0 mg/kg/injection, schedule: Q01DX009 (ip), vehicle: saline); 86 % of control (dose: 400.0 mg/kg/injection, schedule: Q01DX009 (ip), vehicle: saline).
